# Measurements taken from patent US20230149337A1, “OPHTHALMIC FORMULATION AND ITS USE” (OY FINNSUSP AB, priority 2020, published 2023).
# Read-outs that look alike come from different tables or passages of the source.
# How the values were obtained:
# [1] = Langmuir trough: surface pressure isotherms and BAM of pure films; format: physicochemical; details: pure film under compression
# Method: The interactions of the microemulsion formulation SIME02A explained in Example 2 with a tear film lipid layer (TFLL) component were studied in a Langmuir trough model system. A naturally occurring lipid 20 (oleoyloxy)icosanoic acid (20-OAHFA) which represents the O-acyl-ω-hydroxy fatty acids in the TFLL was selected as a model lipid and synthesized as described in Bland et al. Langmuir 2019, 35, 3545-3552. The experiments were performed on a KSV NIMA Large trough equipped with a surface pressure balance with a platinum Wilhelmy plate, a KSV SPOT surface potential meter and KSV NIMA microBAM Brewster angle microscope (BAM), all from Biolin Scientific (Stockholm, Sweden). The Langmuir trough system was enclosed in a plastic hood with an inlet supply of dry and ozone-depleted air (Ozone solutions ODS-3P, Hull, Iow. USA) to prevent oxidation of lipids.
# The Langmuir trough was filled with phosphate-buffered saline (PBS) as a subphase maintained at 35±1° C. to emulate the aqueous layer of the tear film. The model lipid 20-OAHFA or pure sacha inchi (SI) seed oil was dissolved in chloroform and spread on the surface of the PBS subphase. Chloroform was allowed to evaporate for 5 min. […] The lipid film was compressed and expanded in the trough with two Delrin barriers at a rate of 13 mm/min while the surface pressure and surface potential were measured. […]
# [2] = Solubility of dexamethasone in microemulsion formulations; format: physicochemical; details: for solubility: aqueous with cosolvent or surfactant or cyclodextrin, equilibrium from dmso stock, room temperature, 8-9 days, read-out: Solubility of DXM
# Method: The solubility of dexamethasone (DXM) in the microemulsion formulations was studied. To formulations containing 0.1%, 0.5%, 1%, or 5% of the sacha inchi seed oil, DXM ([…] stock in dimethyl sulfoxide, DMSO) was added at concentrations of […] in triplicate. […] The test vials were incubated at room temperature with continuous shaking (90 rpm) for 8-9 days until equilibrium. After incubation, the samples were mixed 1:1 with acetonitrile for 10 min and centrifuged (13,000 rpm, 10 min), followed by immediate HPLC analysis of the supernatant for DXM concentration. HPLC analysis was performed with Agilent 1100 series HPLC system and Eclipse XDB-C18 column (1.8 μm, 4.6×50 mm; Agilent) maintained at 60° C. Isocratic elution of the 5-μl sample injected was performed with 65% Eluent A (1% TFA in Milli-Q water) and 35% Eluent B (0.1% TFA in acetonitrile) at flow rate 1 ml/min and UV detection at 240 nm.
Structure (SMILES),Surface pressure of transition to a solid monolayer [1] [mN/m],Solubility of DXM relative to PBS ([2]; 1% oil concentration in the formulation) [times],"solubility ([2]; microemulsion formulation with 5% sacha inchi seed oil, microemulsion with 5% oil) [µg/mL]",Solubility of DXM relative to PBS ([2]; microemulsion with 5% oil),Solubility of DXM relative to PBS ([2]; microemulsions with lower oil concentrations),"solubility ([2]; phosphate-buffered saline (PBS), PBS alone) [µg/mL]"
"CCCCCCCC/C=C\CCCCCCCC(=O)OCCCCCCCCCCCCCCCCCCCC(=O)O [20-OAHFA, 20 (oleoyloxy)icosanoic acid]",2.5,–,–,–,–,–
"C[C@@H]1C[C@H]2[C@@H]3CCC4=CC(=O)C=C[C@]4(C)[C@@]3(F)[C@@H](O)C[C@]2(C)[C@@]1(O)C(=O)CO [DXM, Dexamethasone]",–,2.5,~3700,about 15 times,at the same level as in PBS,~250
